# Results from patent US20050261246A1, “Methods for treating inflammatory and autoimmune diseases” (priority 2004, published 2005).
# Tests used:
# [1] = test system: CD11c+/CD40+/CD86+ spleen cells; assay: Splenic dendritic, B and T cells in non-CAIA Balb/c mice treated with SNS (FACS); assay type: in vivo, mouse; details: 5 mg/kg i.p. five consecutive days
# Method: (A) Reduction of CD11c+/CD40+/CD86+ cells isolated from spleens of non-CAIA Balb/c mice treated i.p. with SNS at 5 mg/kg or with PBS for 5 consecutive days. Spleens were isolated on the next day after the last SNS injection and splenocytes were analyzed using FACS. The percentage value represents CD11c+/CD40+/CD86+ cell percentage out of the entire splenocyte population. […] Values on X and Y axes represent fluorescence intensity for cell surface markers CD11c and CD40, B220, and CD90.2 (Thy-1), respectively.
# Balb/c mice were treated i.p. with SNS for five consecutive days at 5 mg/kg and their spleen were harvested the next day after the last injection. Control mice received same numbers of injection of PBS. Splenic cells were stained with fluorescence-labeled antibodies, and analyzed by flow cytometry.
# [2] = test system: NO production in LPS-stimulated RAW 264.7 cells; assay: NO production in LPS-stimulated RAW264.7 macrophage cell line (Griess reaction); assay type: cell-based, mouse; details: pre-treated with different concentrations, then 1 ng/ml LPS
# Method: Cells were pre-treated with different concentrations of SNS and then followed by stimulation with LPS. C is medium control. LPS, positive control without SNS treatment. The statistical analysis was performed using one-way ANOVA.
# In further tests, we investigated the effect of SNS on the production of NO in a mouse macrophage cell line, RAW264.7. Cells were pre-treated with different concentrations of SNS and subsequently stimulated with 1 ng/ml of LPS. The level of NO production was measured by a spectrophotographic method using the Griess reaction. […] “C” is medium control, and “LPS” is positive control without SNS treatment. This analysis had been performed at least 3-5 times depending on the cell lines and drug used, with statistical analysis performed using one-way ANOVA.
smiles,measurement,setting,value
"O=C1N[C@@H]2C(=C[C@H](O)[C@H]3OP(=O)(O)O[C@H]32)c2cc3c(c(O)c21)OCO3 [SNS, sodium narcistatin]",CD11c+/CD86+/CD40+ spleen cells (mature dendritic cells),[1],reduction of CD11c+/CD86+/CD40+ spleen cells
same,"T- and B-cell profile (B220, CD90.2)",[1],not affected
same,NO production,[2],concentration-dependent inhibition of NO production
